Experiments:
Format in all cases: in vivo
Kochia (Kochia scoparia) [1] = assay: Test A preemergence; conditions: Bassia scoparia, pre-emergence, 240 h, 0 to 100 scale where 0 is no effect and 100 is complete control, read-out: Kochia plant response rating
How it was run: (§1)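 Visual injury scores from 0, no effect, to 100, complete control, were assigned versus untreated controls roughly 10 d after treatment in the greenhouse. Test chemicals, formulated with surfactant in a non-phytotoxic solvent, were applied to planted seeds as a preemergence soil spray or postemergence to one- to two-leaf plants 2 to 10 cm tall, in loam–sand soil.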

[2] = test system: barnyardgrass (Echinochloa crus-galli); assay: Test A preemergence; conditions: Echinochloa crus-galli, pre-emergence, 240 h, 0 to 100 scale where 0 is no effect and 100 is complete control, read-out: Barnyardgrass plant response rating
How it was run: as §1

[3] = test system: giant foxtail (Setaria faberii); assay: Test A preemergence; conditions: Setaria faberi, pre-emergence, 240 h, 0 to 100 scale where 0 is no effect and 100 is complete control, read-out: Foxtail, Giant plant response rating
How it was run: as §1

[4] = test system: pigweed (Amaranthus retroflexus); assay: Test A preemergence; conditions: Amaranthus retroflexus, pre-emergence, 240 h, 0 to 100 scale where 0 is no effect and 100 is complete control, read-out: Pigweed plant response rating
[5] = test system: ragweed (common ragweed, Ambrosia elatior); assay: Test A preemergence; conditions: Ambrosia artemisiifolia, pre-emergence, 240 h, 0 to 100 scale where 0 is no effect and 100 is complete control, read-out: Ragweed plant response rating
How it was run: as §1

[6] = test system: ryegrass, Italian (Italian ryegrass, Lolium multiflorum); assay: Test A preemergence; conditions: Lolium multiflorum, pre-emergence, 240 h, 0 to 100 scale where 0 is no effect and 100 is complete control, read-out: Ryegrass, Italian plant response rating
How it was run: as §1

[7] = test system: Galium (catchweed bedstraw, Galium aparine); assay: Test A postemergence; conditions: Galium, post-emergence, 240 h
How it was run: as §1

Kochia (Kochia scoparia) [8] = assay: Test A postemergence; conditions: Bassia scoparia, post-emergence, 240 h
How it was run: as §1

[9] = test system: barnyardgrass (Echinochloa crus-galli); assay: Test A postemergence; conditions: Echinochloa crus-galli, post-emergence, 240 h
How it was run: as §1

[10] = test system: blackgrass (Alopecurus myosuroides); assay: Test A postemergence; conditions: Alopecurus myosuroides, post-emergence, 240 h
How it was run: as §1

corn (Zea mays) = assay: Test A postemergence; conditions: Zea mays, post-emergence, 240 h
How it was run: as §1

[11] = test system: giant foxtail (Setaria faberii); assay: Test A postemergence; conditions: Setaria faberi, post-emergence, 240 h
How it was run: as §1

[12] = test system: pigweed (Amaranthus retroflexus); assay: Test A postemergence; conditions: Amaranthus retroflexus, post-emergence, 240 h
How it was run: as §1

[13] = test system: ragweed (common ragweed, Ambrosia elatior); assay: Test A postemergence; conditions: Ambrosia artemisiifolia, post-emergence, 240 h
How it was run: as §1

[14] = test system: ryegrass, Italian (Italian ryegrass, Lolium multiflorum); assay: Test A postemergence; conditions: Lolium multiflorum, post-emergence, 240 h
How it was run: as §1

[15] = test system: wheat (Triticum aestivum); assay: Test A postemergence; conditions: Triticum aestivum, post-emergence, 240 h
How it was run: as §1

[16] = test system: barnyardgrass (Echinochloa crus-galli); assay: Test B flooded paddy test; conditions: Echinochloa crus-galli, 250 g ai/ha, Flood; 0 to 100 scale where 0 is no effect and 100 is complete control; read-out: Barnyardgrass plant response rating
How it was run: (§2)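 Compound goes directly into floodwater once pots are flooded 3 cm above soil, targeting plants at two leaves; the water depth is then held for the test duration. Plants sit 13–15 d in a greenhouse and are rated visually, 100 denoting complete control.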

[17] = test system: ducksalad (Heteranthera limosa); assay: Test B flooded paddy test; conditions: Heteranthera limosa, 250 g ai/ha, Flood; 0 to 100 scale where 0 is no effect and 100 is complete control; read-out: Ducksalad plant response rating
How it was run: as §2

rice (Oryra sativa) = assay: Test B flooded paddy test; conditions: Oryza sativa, 250 g ai/ha, Flood; 0 to 100 scale where 0 is no effect and 100 is complete control; read-out: Rice plant response rating
How it was run: as §2

[18] = test system: sedge, umbrella (small-flower umbrella sedge, Cyperus difformis); assay: Test B flooded paddy test; conditions: Cyperus difformis, 250 g ai/ha, Flood; 0 to 100 scale where 0 is no effect and 100 is complete control; read-out: Sedge, Umbrella plant response rating
How it was run: as §2

[19] = 125 g ai/ha, preemergence, approx. 10 d

With `C=C(C)c1cccc([C@H]2CN(C)C(=O)[C@@H]2C(=O)Nc2cccc(F)c2C)c1` [Compound 1086] the pest or weed control at 31 g/ha (Kochia (Kochia scoparia) [1]; 31 g ai/ha, Preemergence) was 0%, the pest or weed control at 125 g/ha (Kochia (Kochia scoparia) [1]; [19]) was 0% and the pest or weed control at 31 g/ha ([2]; 31 g ai/ha, Preemergence) was 80%. For the same compound, the pest or weed control at 125 g/ha [2, 19] was 80%, the pest or weed control at 31 g/ha ([3]; 31 g ai/ha, Preemergence) was 90% and the pest or weed control at 125 g/ha [3, 19] was 100%. It also gave a pest or weed control at 31 g/ha ([4]; 31 g ai/ha, Preemergence) of 0%, a pest or weed control at 125 g/ha [4, 19] of 0% and a pest or weed control at 31 g/ha ([5]; 31 g ai/ha, Preemergence) of 0%. For the same compound, the pest or weed control at 125 g/ha [5, 19] was 0%, the pest or weed control at 31 g/ha ([6]; 31 g ai/ha, Preemergence) was 0% and the pest or weed control at 125 g/ha [6, 19] was 30%. The pest or weed control at 125 g/ha ([7]; 125 g ai/ha, postemergence, visual injury on 0 to 100 scale (0 no effect, 100 complete control), approx. 10 d, read-out: Galium plant response rating) was 20%, the pest or weed control at 31 g/ha ([7]; Postemergence, 31 g ai/ha, visual injury after approx. 10 d, 0 to 100 scale, 0 no effect, 100 complete control, read-out: Plant response rating, Galium) was 0% and the pest or weed control at 125 g/ha (Kochia (Kochia scoparia) [8]; 125 g ai/ha, postemergence, visual injury on 0 to 100 scale (0 no effect, 100 complete control), approx. 10 d, read-out: Kochia plant response rating) was 0%. It also gave a pest or weed control at 31 g/ha (Kochia (Kochia scoparia) [8]; Postemergence, 31 g ai/ha, visual injury after approx. 10 d, 0 to 100 scale, 0 no effect, 100 complete control, read-out: Plant response rating, Kochia) of 0%, a pest or weed control at 125 g/ha ([9]; 125 g ai/ha, postemergence, visual injury on 0 to 100 scale (0 no effect, 100 complete control), approx. 10 d, read-out: Barnyardgrass plant response rating) of 90% and a pest or weed control at 31 g/ha ([9]; Postemergence, 31 g ai/ha, visual injury after approx. 10 d, 0 to 100 scale, 0 no effect, 100 complete control, read-out: Plant response rating, Barnyardgrass) of 30%. For the same compound, the pest or weed control at 125 g/ha ([10]; 125 g ai/ha, postemergence, visual injury on 0 to 100 scale (0 no effect, 100 complete control), approx. 10 d, read-out: Blackgrass plant response rating) was 0%, the pest or weed control at 31 g/ha ([10]; Postemergence, 31 g ai/ha, visual injury after approx. 10 d, 0 to 100 scale, 0 no effect, 100 complete control, read-out: Plant response rating, Blackgrass) was 0% and the plant injury at 125 g/ha (corn (Zea mays); 125 g ai/ha, postemergence, visual injury on 0 to 100 scale (0 no effect, 100 complete control), approx. 10 d, read-out: Corn plant response rating) was 30%. It also gave a Corn plant response rating (crop injury, 0 = no effect, 100 = complete kill) at 31 g/ha (corn (Zea mays); Postemergence, 31 g ai/ha, visual injury after approx. 10 d, 0 to 100 scale, 0 no effect, 100 complete control) of 0%, a pest or weed control at 125 g/ha ([11]; 125 g ai/ha, postemergence, visual injury on 0 to 100 scale (0 no effect, 100 complete control), approx. 10 d, read-out: Foxtail, Giant plant response rating) of 60% and a pest or weed control at 31 g/ha ([11]; Postemergence, 31 g ai/ha, visual injury after approx. 10 d, 0 to 100 scale, 0 no effect, 100 complete control, read-out: Plant response rating, Foxtail, Giant) of 10%. The pest or weed control at 125 g/ha ([12]; 125 g ai/ha, postemergence, visual injury on 0 to 100 scale (0 no effect, 100 complete control), approx. 10 d, read-out: Pigweed plant response rating) was 0%, the pest or weed control at 31 g/ha ([12]; Postemergence, 31 g ai/ha, visual injury after approx. 10 d, 0 to 100 scale, 0 no effect, 100 complete control, read-out: Plant response rating, Pigweed) was 0% and the pest or weed control at 125 g/ha ([13]; 125 g ai/ha, postemergence, visual injury on 0 to 100 scale (0 no effect, 100 complete control), approx. 10 d, read-out: Ragweed plant response rating) was 0%. For the same compound, the pest or weed control at 31 g/ha ([13]; Postemergence, 31 g ai/ha, visual injury after approx. 10 d, 0 to 100 scale, 0 no effect, 100 complete control, read-out: Plant response rating, Ragweed) was 0%, the pest or weed control at 125 g/ha ([14]; 125 g ai/ha, postemergence, visual injury on 0 to 100 scale (0 no effect, 100 complete control), approx. 10 d, read-out: Ryegrass, Italian plant response rating) was 0% and the pest or weed control at 31 g/ha ([14]; Postemergence, 31 g ai/ha, visual injury after approx. 10 d, 0 to 100 scale, 0 no effect, 100 complete control, read-out: Plant response rating, Ryegrass, Italian) was 0%. It also gave a plant injury at 125 g/ha ([15]; 125 g ai/ha, postemergence, visual injury on 0 to 100 scale (0 no effect, 100 complete control), approx. 10 d, read-out: Wheat plant response rating) of 20%, a plant injury at 31 g/ha ([15]; Postemergence, 31 g ai/ha, visual injury after approx. 10 d, 0 to 100 scale, 0 no effect, 100 complete control, read-out: Plant response rating, Wheat) of 0% and a pest or weed control at 250 g/ha [16] of 45%. For the same compound, the pest or weed control at 250 g/ha [17] was 40%, the pest or weed control at 250 g/ha (rice (Oryra sativa)) was 0% and the pest or weed control at 250 g/ha [18] was 0%.

From patent US12077503B2, “Substituted cyclic amides and their use as herbicides” (FMC CORPORATION, priority 2015, dated 2024)
